PubChem BioAssay AID248 (DTP/NCI, 2004)
Where “and” joins values, the source holds several entries; their conditions need not be identical. Equal values may be shown once. Toxic doses and inconclusive results are not listed. Cut-off read from the data, not from the text of the source: active = T/C of 150% or more; inactive = T/C below 125%.

Test system: L1210 leukemia ip in BDF1 mice, survival T/C
Test: NCI In Vivo Anticancer Drug Screen. Data for tumor model L1210 Leukemia (intraperitoneal) in B6D2F1 (BDF1) mice
Conditions: endpoint: mean survival time, higher = longer survival
Procedure, shortened: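 Value reflects the ratio of survival in compound-treated mice to survival in vehicle-treated controls, with both groups carrying the same transplanted tumor.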

[1] = dose: 100.0 mg/kg/injection, schedule: Q01DX009 (ip), vehicle: Klucel (hydroxypropylcellulose) (HPC)
[2] = dose: 200.0 mg/kg/injection, schedule: Q01DX009 (ip), vehicle: Klucel (hydroxypropylcellulose) (HPC)
[3] = dose: 400.0 mg/kg/injection, schedule: Q01DX009 (ip), vehicle: Klucel (hydroxypropylcellulose) (HPC)
[4] = dose: 100.0 mg/kg/injection, schedule: Q04DX003 (ip), vehicle: Klucel (hydroxypropylcellulose) (HPC)
[5] = dose: 200.0 mg/kg/injection, schedule: Q04DX003 (ip), vehicle: Klucel (hydroxypropylcellulose) (HPC)
[6] = dose: 400.0 mg/kg/injection, schedule: Q04DX003 (ip), vehicle: Klucel (hydroxypropylcellulose) (HPC)
[7] = dose: 100.0 mg/kg/injection, schedule: Q01DX009 (ip), vehicle: saline
[8] = dose: 100.0 mg/kg/injection, schedule: Q04DX003 (ip), vehicle: saline
[9] = dose: 200.0 mg/kg/injection, schedule: Q01DX009 (ip), vehicle: saline
[10] = dose: 200.0 mg/kg/injection, schedule: Q04DX003 (ip), vehicle: saline
[11] = dose: 400.0 mg/kg/injection, schedule: Q01DX009 (ip), vehicle: saline
[12] = dose: 400.0 mg/kg/injection, schedule: Q04DX003 (ip), vehicle: saline
[13] = dose: 100.0 mg/kg/injection, schedule: Q04DX003 (ip), vehicle: saline with Tween-80
[14] = dose: 200.0 mg/kg/injection, schedule: Q04DX003 (ip), vehicle: saline with Tween-80
[15] = dose: 400.0 mg/kg/injection, schedule: Q04DX003 (ip), vehicle: saline with Tween-80
[16] = dose: 75.0 mg/kg/injection, schedule: Q01DX001 (ip), vehicle: saline
[17] = dose: 150.0 mg/kg/injection, schedule: Q01DX001 (ip), vehicle: saline
[18] = dose: 300.0 mg/kg/injection, schedule: Q01DX001 (ip), vehicle: saline
[19] = dose: 25.0 mg/kg/injection, schedule: Q01DX009 (ip), vehicle: saline with Tween-80
[20] = dose: 50.0 mg/kg/injection, schedule: Q01DX009 (ip), vehicle: saline with Tween-80
[21] = dose: 100.0 mg/kg/injection, schedule: Q01DX009 (ip), vehicle: saline with Tween-80
[22] = dose: 200.0 mg/kg/injection, schedule: Q01DX009 (ip), vehicle: saline with Tween-80
[23] = dose: 100.0 mg/kg/injection, schedule: Q01DX001 (ip), vehicle: carboxymethylcellulose (CMC)
[24] = dose: 200.0 mg/kg/injection, schedule: Q01DX001 (ip), vehicle: carboxymethylcellulose (CMC)
[25] = dose: 400.0 mg/kg/injection, schedule: Q01DX001 (ip), vehicle: carboxymethylcellulose (CMC)

Measured: T/C

COc1cc(C=O)ccc1OC(=O)Nc1cccc(Cl)c1C
inactive: [1] 97 % of control | [2] 97 % of control | [3] 103 % of control

CCOc1ccc(/C=C2\N=C(c3ccccc3)OC2=O)cc1OC
inactive: [1] 109 % of control | [2] 105 % of control | [3] 102 % of control

COc1cc([N+](=O)[O-])ccc1S(=O)(=O)F
inactive: dose: 100.0 mg/kg/injection, schedule: Q01DX009 (ip), vehicle: gum acacia 95 % of control | dose: 200.0 mg/kg/injection, schedule: Q01DX009 (ip), vehicle: gum acacia 98 % of control | dose: 400.0 mg/kg/injection, schedule: Q01DX009 (ip), vehicle: gum acacia 90 % of control

CN(C)/C(=C/c1ccccc1)CS(=O)(=O)N(C)C
inactive: dose: 75.0 mg/kg/injection, schedule: Q01DX001 (ip), vehicle: carboxymethylcellulose (CMC) 106 % of control | dose: 150.0 mg/kg/injection, schedule: Q01DX001 (ip), vehicle: carboxymethylcellulose (CMC) 97 % of control | dose: 300.0 mg/kg/injection, schedule: Q01DX001 (ip), vehicle: carboxymethylcellulose (CMC) 89 % of control

CC(C)=CCC/C(C)=C/COC(=O)C(CC=C(C)C)CCN1CCN(C)CC1 (stereo not drawn)
inactive: [4] 104 % of control | [5] 93 % of control | [6] 104 % of control

Nc1nc(N)c(N)c(=O)[nH]1
inactive: dose: 25.0 mg/kg/injection, schedule: Q04DX003 (ip), vehicle: Klucel (hydroxypropylcellulose) (HPC) 103 % of control | dose: 50.0 mg/kg/injection, schedule: Q04DX003 (ip), vehicle: Klucel (hydroxypropylcellulose) (HPC) 100 % of control | [7] 109 % of control | [4] 94 % of control and 100 % of control | [8] 107 % of control | [9] 101 % of control | [10] 105 % of control | [11] 101 % of control | [12] 104 % of control

O=C(Nc1ccccc1)Nc1ccc([N+](=O)[O-])cc1O
inactive: [13] 103 % of control | [14] 113 % of control | [15] 100 % of control

NC(CCCNc1nc(O)c(-c2ccccc2)c(=O)[nH]1)C(=O)O (stereo not drawn)
inactive: [16] 104 % of control | [17] 102 % of control | [18] 102 % of control

C#CC(OC(=O)NC(C(=O)OC)C(C)C)(c1ccccc1)c1ccccc1 (stereo not drawn)
inactive: dose: 50.0 mg/kg/injection, schedule: Q04DX002 (ip), vehicle: saline with Tween-80 100 % of control | dose: 100.0 mg/kg/injection, schedule: Q04DX002 (ip), vehicle: saline with Tween-80 105 % of control and 114 % of control | dose: 200.0 mg/kg/injection, schedule: Q04DX002 (ip), vehicle: saline with Tween-80 122 % of control

CCCCCCCCCCCCCCCCOc1c(Cl)cc(Cl)cc1Cl
inactive: dose: 100.0 mg/kg/injection, schedule: Q04DX002 (ip), vehicle: Klucel (hydroxypropylcellulose) (HPC) 102 % of control | dose: 200.0 mg/kg/injection, schedule: Q04DX002 (ip), vehicle: Klucel (hydroxypropylcellulose) (HPC) 98 % of control | dose: 400.0 mg/kg/injection, schedule: Q04DX002 (ip), vehicle: Klucel (hydroxypropylcellulose) (HPC) 102 % of control

Cn1[nH]c(=O)[nH]c1=O
inactive: dose: 100.0 mg/kg/injection, schedule: Q04DX002 (ip), vehicle: saline 103 % of control | [13] 98 % of control and 87 % of control | dose: 200.0 mg/kg/injection, schedule: Q04DX002 (ip), vehicle: saline 100 % of control | [14] 93 % of control | dose: 400.0 mg/kg/injection, schedule: Q04DX002 (ip), vehicle: saline 103 % of control | [15] 90 % of control

O=C1c2cc(Cl)ccc2-c2ccc([N+](=O)[O-])cc21
inactive: [4] 100 % of control | [5] 97 % of control | [6] 106 % of control

BrC(Br)c1ccc(C(Br)Br)cc1
inactive: [13] 94 % of control | [14] 100 % of control | [15] 94 % of control

CCN1CCCC(Nc2cc(C)nc(Nc3nc4cc(Cl)c(Cl)cc4[nH]3)n2)C1 (stereo not drawn)
inactive: [19] 94 % of control | dose: 100.0 mg/kg/injection, schedule: Q01DX001 (ip), vehicle: saline 98 % of control

COC(C(=O)O)c1cccs1 (stereo not drawn)
inactive: [20] 91 % of control | [21] 86 % of control | [22] 100 % of control

CNC(C)(C)C(SS)c1ccc(Cl)cc1 (stereo not drawn)
inactive: [19] 92 % of control | dose: 25.0 mg/kg/injection, schedule: Q04DX003 (ip), vehicle: saline with Tween-80 102 % of control | [20] 98 % of control | dose: 50.0 mg/kg/injection, schedule: Q04DX003 (ip), vehicle: saline with Tween-80 96 % of control | dose: 75.0 mg/kg/injection, schedule: Q01DX009 (ip), vehicle: saline with Tween-80 94 % of control | [13] 98 % of control

CCN(CC)c1ccc(C(=S)c2ccc(N(CC)CC)cc2)cc1
inactive: dose: 100.0 mg/kg/injection, schedule: Q01DX001 (ip), vehicle: other 91 % of control | dose: 200.0 mg/kg/injection, schedule: Q01DX001 (ip), vehicle: other 91 % of control | dose: 400.0 mg/kg/injection, schedule: Q01DX001 (ip), vehicle: other 95 % of control

CC(CS(=O)(=O)O)N1CCOCC1 (stereo not drawn)
inactive: [7] 95 % of control | [8] 100 % of control | [9] 98 % of control | [10] 101 % of control | [11] 102 % of control | [12] 97 % of control

CC(=O)Nc1ccc(/C=C/C(=O)c2ccc(Cl)cc2)cc1
inactive: [21] 102 % of control | [13] 100 % of control | [22] 89 % of control | [14] 87 % of control | dose: 400.0 mg/kg/injection, schedule: Q01DX009 (ip), vehicle: saline with Tween-80 91 % of control | [15] 90 % of control

CC1=NOC(=O)C12CC2
inactive: [16] 100 % of control | [17] 100 % of control | [18] 103 % of control

CCc1c(O)nc2ccccn2c1=O
inactive: [23] 98 % of control | [24] 109 % of control | [25] 113 % of control

Cn1c(N)c(N=Nc2ccc(S(=O)(=O)Nc3ncccn3)cc2)c(=O)n(C)c1=O
inactive: [23] 98 % of control | [24] 98 % of control | [25] 95 % of control

CC1CC2(C)C(CC1=O)CC(C)C1C2CCC2(C)C1CCC2(C)O (stereo not drawn)
inactive: [21] 90 % of control | [22] 90 % of control

COc1ccc(S(=O)(=O)Nc2cc([N+](=O)[O-])ccc2C)cc1
inactive: [1] 100 % of control | [2] 100 % of control | [3] 98 % of control
